The values below come from PubChem BioAssay AID318 (DTP/NCI, 2004).

Each structure is given as a SMILES string. Where “and” joins values, the source holds several entries; their conditions need not be identical. Identical values can stand only once. Toxic doses and inconclusive results are not listed.

This assay concerns BDF1 mice, P815 leukemia ip, survival T/C. As to the kind of experiment: NCI In Vivo Anticancer Drug Screen. Data for tumor model P815 Mast Cell Leukemia (Ascitic) (intraperitoneal) in B6D2F1 (BDF1) mice. As to conditions: higher = longer survival. How it is done:
The antitumor activity of compounds was measured in mice bearing transplantable tumors. Survival or tumor size were measured and the results are expressed as the measurement made in the treated group (T) divided by the measurement made in the vehicle treated control group (C). The tumor model used in this assay is P815 Mast Cell Leukemia (Ascitic) (intraperitoneal) in B6D2F1 (BDF1) mice

Where [1] appears, read: endpoint: survival time, mean or median, dose: 18.0 mg/kg/injection, schedule: Q01DX010 (ip), vehicle: saline.
[2] abbreviates: endpoint: survival time, mean or median, dose: 27.0 mg/kg/injection, schedule: Q01DX010 (ip), vehicle: saline.
The mark [3] stands for this setting: endpoint: survival time, mean or median, dose: 50.0 mg/kg/injection, schedule: Q01DX015 (ip), vehicle: carboxymethylcellulose (CMC).
The mark [4] stands for this setting: endpoint: survival time, mean or median, dose: 18.8 mg/kg/injection, schedule: Q01DX010 (ip), vehicle: saline.
[5] abbreviates: endpoint: survival time, mean or median, dose: 37.5 mg/kg/injection, schedule: Q01DX010 (ip), vehicle: saline.
[6] abbreviates: endpoint: survival time, mean or median, dose: 75.0 mg/kg/injection, schedule: Q01DX010 (ip), vehicle: saline.
Where [7] appears, read: endpoint: survival time, mean or median, dose: 10.0 mg/kg/injection, schedule: Q01DX010 (ip), vehicle: saline.
Setting [8] is: endpoint: survival time, mean or median, dose: 20.0 mg/kg/injection, schedule: Q01DX010 (ip), vehicle: saline.
The mark [9] stands for this setting: endpoint: survival time, mean or median, dose: 40.0 mg/kg/injection, schedule: Q01DX010 (ip), vehicle: saline.
The mark [10] stands for this setting: endpoint: survival time, mean or median, dose: 2.0 mg/kg/injection, schedule: Q01DX010 (ip), vehicle: saline.
[11] abbreviates: endpoint: survival time, mean or median, dose: 8.0 mg/kg/injection, schedule: Q01DX010 (ip), vehicle: saline.
[12] abbreviates: endpoint: survival time, mean or median, dose: 16.0 mg/kg/injection, schedule: Q01DX010 (ip), vehicle: saline.
Setting [13] is: endpoint: survival time, mean or median, dose: 50.0 mg/kg/injection, schedule: Q01DX010 (ip), vehicle: saline.
Where [14] appears, read: endpoint: survival time, mean or median, dose: 100.0 mg/kg/injection, schedule: Q01DX010 (ip), vehicle: saline.
Where [15] appears, read: endpoint: survival time, mean or median, dose: 12.0 mg/kg/injection, schedule: Q01DX010 (ip), vehicle: saline.
Where [16] appears, read: endpoint: survival time, mean or median, dose: 25.0 mg/kg/injection, schedule: Q01DX010 (ip), vehicle: saline.

Take `CN=C(NC)c1ccc(NC(=O)c2ccc(C(=O)Nc3ccc(C(=NC)NC)cc3)c(Cl)c2)cc1`: the T/C was 91 % of control under setting [1] and 100 % of control under setting [2].
As for `Nc1nc(N)c2nc(CNc3ccc(C(=O)NC(CCC(=O)O)C(=O)O)cc3)cnc2n1` (stereo unspecified), the T/C was 102 % of control and 105 % of control (endpoint: survival time, mean or median, dose: 0.03 mg/kg/injection, schedule: Q01DX010 (ip), vehicle: other); 100 % of control and 102 % of control (endpoint: survival time, mean or median, dose: 0.05 mg/kg/injection, schedule: Q01DX010 (ip), vehicle: other); 100 % of control and 108 % of control (endpoint: survival time, mean or median, dose: 0.1 mg/kg/injection, schedule: Q01DX010 (ip), vehicle: other); 105 % of control and 108 % of control (endpoint: survival time, mean or median, dose: 0.2 mg/kg/injection, schedule: Q01DX010 (ip), vehicle: other).
In the case of `CN(C)/N=N/c1nc[nH]c1C(N)=O`, the T/C reads like this: (endpoint: survival time, mean or median, dose: 25.0 mg/kg/injection, schedule: Q01DX015 (ip), vehicle: carboxymethylcellulose (CMC)) 103 % of control; under setting [3], 110 % of control; (endpoint: survival time, mean or median, dose: 150.0 mg/kg/injection, schedule: Q01DX015 (ip), vehicle: carboxymethylcellulose (CMC)) 96 % of control.
On to `CN(C)c1nc(N(C)C)nc(N(C)C)n1`, for which the T/C is, setting by setting: under setting [4], 94 % of control and 102 % of control; under setting [5], 94 % of control; under setting [6], 97 % of control and 102 % of control; (endpoint: survival time, mean or median, dose: 150.0 mg/kg/injection, schedule: Q01DX010 (ip), vehicle: saline) 102 % of control and 107 % of control.
In the case of `Cc1cc(N(CCCl)CCCl)ccc1N=Nc1ccccc1C(=O)O`, the T/C by setting is: (endpoint: survival time, mean or median, dose: 5.0 mg/kg/injection, schedule: Q01DX010 (ip), vehicle: saline) 105 % of control and 111 % of control; under setting [7], 105 % of control and 111 % of control; under setting [8], 111 % of control; under setting [9], 88 % of control.
Take `COc1cc(-c2ccc(Nc3ccccc3C(=O)O)c(OC)c2)ccc1Nc1ccccc1C(=O)O`: the T/C runs as follows: (endpoint: survival time, mean or median, dose: 45.0 mg/kg/injection, schedule: Q01DX010 (ip), vehicle: saline) 108 % of control; (endpoint: survival time, mean or median, dose: 67.0 mg/kg/injection, schedule: Q01DX010 (ip), vehicle: saline) 120 % of control.
Turning to `O=C(Nc1ccc(C2=NCCN2)cc1)c1ccc(NC(=O)c2ccc(C3=NCCN3)cc2)cc1`, the T/C under setting [1] is 112 % of control and the T/C under setting [2] was 116 % of control.
As to `O=C(O)CC(NC(=O)CP(=O)(O)O)C(=O)O` (stereo unspecified), the T/C (endpoint: median survival time, dose: 62.2 mg/kg/injection, schedule: Q04DX003 (ip), vehicle: saline) is 99 % of control; the T/C (endpoint: median survival time, dose: 104.0 mg/kg/injection, schedule: Q04DX003 (ip), vehicle: saline) is 99 % of control; the T/C (endpoint: median survival time, dose: 173.0 mg/kg/injection, schedule: Q04DX003 (ip), vehicle: saline) was 97 % of control; the T/C (endpoint: median survival time, dose: 288.0 mg/kg/injection, schedule: Q04DX003 (ip), vehicle: saline) is 107 % of control; the T/C (endpoint: median survival time, dose: 480.0 mg/kg/injection, schedule: Q04DX003 (ip), vehicle: saline) was 92 % of control.
`CC(CCC(C)OS(C)(=O)=O)OS(C)(=O)=O` (stereo unspecified): the T/C was 100 % of control under setting [10]; 100 % of control and 105 % of control (endpoint: survival time, mean or median, dose: 4.0 mg/kg/injection, schedule: Q01DX010 (ip), vehicle: saline); 100 % of control and 105 % of control under setting [11]; 120 % of control under setting [12].
Regarding `Nc1cc(C(=O)Nc2ccc(C3=NCCN3)cc2)cc(C(=O)Nc2ccc(C3=NCCN3)cc2)c1`, the T/C was 116 % of control under setting [12]; 120 % of control (endpoint: survival time, mean or median, dose: 32.0 mg/kg/injection, schedule: Q01DX010 (ip), vehicle: saline); 150 % of control (endpoint: survival time, mean or median, dose: 64.0 mg/kg/injection, schedule: Q01DX010 (ip), vehicle: saline).
For `Nc1nc(=S)c2ncn(C3OC(CO)C(O)C3O)c2[nH]1` (stereo unspecified), under setting [10], the T/C was 155 % of control.
With `CS(=O)(=O)OCCCl`, the T/C under setting [4] is 100 % of control and 105 % of control; the T/C under setting [5] is 100 % of control; the T/C under setting [6] was 100 % of control and 111 % of control.
`CC(C)CNS(=O)(=O)c1ncnc2nc[nH]c12`: the T/C (endpoint: survival time, mean or median, dose: 37.5 mg/kg/injection, schedule: Q01DX015 (ip), vehicle: carboxymethylcellulose (CMC)) was 97 % of control.
As to `C(CC1CO1)C1CO1` (stereo unspecified), the T/C runs as follows: (endpoint: survival time, mean or median, dose: 40.0 mg/kg/injection, schedule: Q01DX015 (ip), vehicle: saline) 150 % of control; (endpoint: survival time, mean or median, dose: 60.0 mg/kg/injection, schedule: Q01DX015 (ip), vehicle: saline) 172 % of control.
Turning to `Cc1c(O)ccc(=O)n1O`, the T/C was 95 % of control (endpoint: survival time, mean or median, dose: 49.0 mg/kg/injection, schedule: Q01DX015 (ip), vehicle: other); 113 % of control (endpoint: survival time, mean or median, dose: 73.0 mg/kg/injection, schedule: Q01DX015 (ip), vehicle: other); 105 % of control (endpoint: survival time, mean or median, dose: 110.0 mg/kg/injection, schedule: Q01DX015 (ip), vehicle: other); 100 % of control (endpoint: survival time, mean or median, dose: 165.0 mg/kg/injection, schedule: Q01DX015 (ip), vehicle: other); 95 % of control (endpoint: survival time, mean or median, dose: 247.0 mg/kg/injection, schedule: Q01DX015 (ip), vehicle: other).
`O=CCC(O)C(O)C(O)CO` (stereo unspecified): the T/C (endpoint: survival time, mean or median, dose: 62.5 mg/kg/injection, schedule: Q01DX010 (ip), vehicle: saline) is 94 % of control and 97 % of control; the T/C (endpoint: survival time, mean or median, dose: 125.0 mg/kg/injection, schedule: Q01DX010 (ip), vehicle: saline) is 97 % of control and 105 % of control; the T/C (endpoint: survival time, mean or median, dose: 250.0 mg/kg/injection, schedule: Q01DX010 (ip), vehicle: saline) was 105 % of control and 107 % of control; the T/C (endpoint: survival time, mean or median, dose: 500.0 mg/kg/injection, schedule: Q01DX010 (ip), vehicle: saline) is 102 % of control.
As to `CC(=O)OCC1OC(n2cnc3c(=S)nc[nH]c32)C(OC(C)=O)C1OC(C)=O` (stereo unspecified), the T/C by setting is: under setting [3], 162 % of control; (endpoint: survival time, mean or median, dose: 100.0 mg/kg/injection, schedule: Q01DX015 (ip), vehicle: carboxymethylcellulose (CMC)) 100 % of control.
For `C=CCSc1nc(N)nc2nc[nH]c12`, the T/C is 113 % of control (endpoint: survival time, mean or median, dose: 15.0 mg/kg/injection, schedule: Q01DX015 (ip), vehicle: other); 109 % of control (endpoint: survival time, mean or median, dose: 16.0 mg/kg/injection, schedule: Q01DX015 (ip), vehicle: other); 96 % of control and 107 % of control (endpoint: survival time, mean or median, dose: 31.0 mg/kg/injection, schedule: Q01DX015 (ip), vehicle: other); 106 % of control and 112 % of control (endpoint: survival time, mean or median, dose: 62.0 mg/kg/injection, schedule: Q01DX015 (ip), vehicle: other); 89 % of control and 91 % of control (endpoint: survival time, mean or median, dose: 125.0 mg/kg/injection, schedule: Q01DX015 (ip), vehicle: other).
In the case of `Cc1cc2nc3c(=O)[nH]c(=O)nc-3n(CC(O)C(O)C(O)C(O)CO)c2cc1C` (stereo unspecified), the T/C is 100 % of control under setting [13]; 100 % of control under setting [14]; 88 % of control and 100 % of control (endpoint: survival time, mean or median, dose: 200.0 mg/kg/injection, schedule: Q01DX010 (ip), vehicle: saline); 88 % of control (endpoint: survival time, mean or median, dose: 400.0 mg/kg/injection, schedule: Q01DX010 (ip), vehicle: saline).
Consider `O=C(Nc1ccc(C2=NCCN2)cc1)c1ccc(C(=O)Nc2ccc(C3=NCCN3)cc2)c([N+](=O)[O-])c1`, for which the T/C is, setting by setting: (endpoint: survival time, mean or median, dose: 6.0 mg/kg/injection, schedule: Q01DX010 (ip), vehicle: saline) 171 % of control; under setting [11], 284 % of control; under setting [15], 92 % of control.
Consider `NC12CC3CC(CC(C3)C1)C2`, for which the T/C is, setting by setting: under setting [16], 100 % of control; under setting [13], 100 % of control; under setting [14], 105 % of control.
For the molecule `Cn1c(N)nc2nc[nH]c2c1=S`, the T/C reads like this: under setting [7], 106 % of control; under setting [8], 100 % of control and 111 % of control; under setting [9], 100 % of control; (endpoint: survival time, mean or median, dose: 160.0 mg/kg/injection, schedule: Q01DX010 (ip), vehicle: saline) 100 % of control.
Regarding `CC1CN=C(c2ccc(NC(=O)c3cccc(C(=O)Nc4ccc(C5=NCC(C)N5)cc4)c3)cc2)N1` (stereo unspecified), the T/C is 112 % of control under setting [15], 104 % of control under setting [1] and 112 % of control under setting [2].
With `COS(C)(=O)=O`, the T/C was 100 % of control (endpoint: survival time, mean or median, dose: 12.5 mg/kg/injection, schedule: Q01DX010 (ip), vehicle: saline); 100 % of control under setting [16]; 100 % of control under setting [13].
